# In patent US11629335B2, “Methods of improving vector transduction efficiency into T lymphocytes” (CELGENE CORPORATION, priority 2014, dated 2023):
# Key:
# [1] = tested on: primary human T lymphocytes; assay: Lentiviral transduction efficiency of primary human T lymphocytes with CAR vector JL28.2, FACS for VEGFR2+ cells; type: cell-based; conditions: for transduced cells VEGFR2+: in presence of DD, MOI 1.8; for VEGFR2+ cells: 6 μM BX795 before and concurrently, nine hours total (Pre-treated+Concurrent); for VEGFR2 expression as compared to DD Only Control: day 3 and day 8
# Procedure: Lentivirus encoding the vector JL28.2 (VEGFR2-CD28TM-CD28IC-P2A-GFP), which encodes a chimeric antigen receptor composed of VEGFR2 and GFP protein, was added to the activated T lymphocyte culture at a multiplicity of infection (MOI) of 1.8. Fluorescence-activated cell sorting (FACS) was used to determine the proportion of T lymphocytes expressing VEGFR2 as a marker for successfully transduced cells.
# Transduced lymphocytes were then analyzed by FACS to determine the proportion of successfully transduced cells.
# T lymphocytes were cultured for eight days after transduction, and VEGFR2 expression was monitored at days 3 and 8 post-transduction.
# Cells were analyzed by FACS for viability.
# Primary human T lymphocytes were cultured as in Section 6.3.1 and analyzed by FACS for expression of VEGFR2.
# [2] = tested on: primary human T lymphocytes; assay: Viability of primary human T lymphocytes after lentiviral transduction, by FACS; conditions: absence of 2-AP, JL28.2 MOI 3, 50 U/ml IL-2; without DD or PS 84%
# Procedure: Primary human T lymphocytes were cultured in RPMI-1640 media supplemented with 10% (v/v) fetal bovine serum (FBS), and activated with anti-CD3/CD28 Dynabeads® at a Dynabead:T lymphocyte ratio of 3:1 for 24 hours. 2-Aminopurine (2-AP) was added to cultures and incubated for 90 minutes at 37 C. DEAE-dextran (DD) or protamine sulfate (PS) were added to the cultures in the presence of 50 U/ml IL-2 and JL28.2 lentiviral vector at an MOI of 3. Cells were analyzed by FACS for viability.
compound,measurement,setting,value
protamine sulfate [PS],cells VEGFR2+,"[1]; transformation reagent alone, no 2-AP, JL28.2 MOI 3, without DD or PS 4.49%",0.565%
same,viable cells after lentiviral transduction,[2],84.9%
"Nc1ncc2[nH]cnc2n1 [2-AP, 2-Aminopurine]",transduction efficiency as compared to cells not exposed to 2-AP (Control),"[1]; 2-AP 2.5 mM, 5 mM or 10 mM, pretreated 90 minutes, then 5 hours with lentivirus, in presence of DD or PS",increased transduction efficiency
O=C(NCCCNc1nc(Nc2cccc(NC(=O)N3CCCC3)c2)ncc1I)c1cccs1 [BX795],transduced cells VEGFR2+,[1]; 1 μM BX795 added concurrently with lentivirus for six hours,7.63%
same,VEGFR2+ cells,[1]; day 3 post-transduction,18.4%
same,VEGFR2+ cells,[1]; day 8 post-transduction,10.6%
same,VEGFR2 expression level relative to DD Only cultures,[1]; 6 μM BX795 both before and during lentiviral transduction,roughly twice as high
same,VEGFR2 expression as compared to DD Only Control,[1]; 6 μM BX795 concurrently with lentiviral transduction for six hours (Concurrent),no improvement
same,VEGFR2 expression as compared to DD Only Control,[1]; 6 μM BX795 for three hours before lentiviral transduction (Pre-treated),increase
same,transduced cells VEGFR2+,[1]; 10 μM BX795 added concurrently with lentivirus for six hours,10.5%
